Laboratory results: US20090156501A1, “IDENTIFICATION OF LIGANDS BY SELECTIVE AMPLIFICATION OF CELLS TRANSFECTED WITH RECEPTORS” (ACADIA PHARMACEUTICALS, INC., priority 1999, published 2009)
Where two headings read alike, the source gives them in different places.

Assays:
Assay type in all cases: cell-based
5-HT2A receptor = biological target: T1, 5-HT2A receptor (Homo sapiens, UniProt P28223); assay: R-SAT functional assay of the 5-HT2A receptor in NIH 3T3 cells (agonism and inverse agonism); conditions: for 5-HT2A Receptor Negative Log EC50: Table 6, inverse agonism, 50 ng per well receptor DNA; for Negative Log EC50, inverse agonists at the 5-HT2A receptor: Table 5, inhibition of constitutive activity, mean of three dose response experiments ± standard error
T1 construct: expressed in transfected cells; host or cells: NIH 3T3 (mouse fibroblasts), transient transfection, PSI expression vector
T1 sequence (P28223 whole entry): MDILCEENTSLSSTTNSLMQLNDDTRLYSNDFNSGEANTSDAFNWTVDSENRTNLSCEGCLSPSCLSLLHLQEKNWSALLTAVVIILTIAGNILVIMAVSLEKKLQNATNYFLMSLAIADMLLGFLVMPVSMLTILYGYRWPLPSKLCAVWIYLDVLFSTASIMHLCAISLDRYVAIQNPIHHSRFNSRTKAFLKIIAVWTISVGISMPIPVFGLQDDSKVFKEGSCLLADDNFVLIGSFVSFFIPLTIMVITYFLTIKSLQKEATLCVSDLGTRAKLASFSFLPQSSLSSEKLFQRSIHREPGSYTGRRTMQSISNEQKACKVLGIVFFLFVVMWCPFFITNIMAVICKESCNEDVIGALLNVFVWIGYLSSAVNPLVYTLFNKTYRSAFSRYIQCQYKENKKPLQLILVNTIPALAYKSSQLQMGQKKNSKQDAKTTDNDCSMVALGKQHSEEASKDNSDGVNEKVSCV

5-HT2C receptor = biological target: T2, 5-HT2C receptor (Homo sapiens, UniProt P28335); assay: R-SAT functional assay of the 5-HT2C receptor (inverse agonism); conditions: Table 6, 50 ng per well receptor DNA
T2 construct: expressed in transfected cells; PSI mammalian expression vector
T2 sequence (P28335 33-458): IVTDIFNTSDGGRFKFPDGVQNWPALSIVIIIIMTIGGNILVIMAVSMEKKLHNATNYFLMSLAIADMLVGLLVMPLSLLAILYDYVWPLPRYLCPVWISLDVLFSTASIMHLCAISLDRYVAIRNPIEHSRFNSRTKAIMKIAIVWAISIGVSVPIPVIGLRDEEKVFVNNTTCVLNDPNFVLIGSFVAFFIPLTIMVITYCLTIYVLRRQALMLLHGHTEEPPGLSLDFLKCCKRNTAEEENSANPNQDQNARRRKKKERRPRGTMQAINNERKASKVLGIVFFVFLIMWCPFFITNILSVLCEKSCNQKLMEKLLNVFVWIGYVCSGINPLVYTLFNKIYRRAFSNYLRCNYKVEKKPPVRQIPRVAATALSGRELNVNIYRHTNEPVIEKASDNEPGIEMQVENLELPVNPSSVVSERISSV

[1] = biological target: T3, α2-C2 adrenergic receptor (Homo sapiens, UniProt P18089); assay: Single Receptor Format amplification assay, alpha 2 C2; conditions: for EC50: Table 3, 8-10 concentrations, 3-4 replicates, read-out: Agonist EC50 nM, α2-C2
T3 construct: expressed in transfected cells; host or cells: NIH 3T3
T3 sequence (P18089 1-450): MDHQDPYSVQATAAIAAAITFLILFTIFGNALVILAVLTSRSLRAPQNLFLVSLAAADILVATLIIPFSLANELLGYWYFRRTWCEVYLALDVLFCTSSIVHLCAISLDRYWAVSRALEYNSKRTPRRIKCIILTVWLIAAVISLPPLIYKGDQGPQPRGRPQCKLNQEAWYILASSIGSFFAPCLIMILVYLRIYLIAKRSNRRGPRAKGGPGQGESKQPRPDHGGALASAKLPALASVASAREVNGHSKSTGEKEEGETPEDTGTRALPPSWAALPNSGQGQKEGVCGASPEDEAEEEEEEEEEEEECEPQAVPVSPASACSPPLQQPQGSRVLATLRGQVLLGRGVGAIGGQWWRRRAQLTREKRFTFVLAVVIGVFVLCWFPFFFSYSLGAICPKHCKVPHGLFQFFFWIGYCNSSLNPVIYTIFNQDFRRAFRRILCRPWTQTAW

[2] = biological target: T4, α2-C10 adrenergic receptor (Homo sapiens, UniProt P08913); assay: Single Receptor Format amplification assay, alpha 2 C10; conditions: for EC50: Table 3, 8-10 concentrations, 3-4 replicates, read-out: Agonist EC50 nM, α2-C10; for Max Response, α2-C10: relative to other ligands at the given receptor
T4 construct: expressed in transfected cells; host or cells: NIH 3T3
T4 sequence (P08913 1-465): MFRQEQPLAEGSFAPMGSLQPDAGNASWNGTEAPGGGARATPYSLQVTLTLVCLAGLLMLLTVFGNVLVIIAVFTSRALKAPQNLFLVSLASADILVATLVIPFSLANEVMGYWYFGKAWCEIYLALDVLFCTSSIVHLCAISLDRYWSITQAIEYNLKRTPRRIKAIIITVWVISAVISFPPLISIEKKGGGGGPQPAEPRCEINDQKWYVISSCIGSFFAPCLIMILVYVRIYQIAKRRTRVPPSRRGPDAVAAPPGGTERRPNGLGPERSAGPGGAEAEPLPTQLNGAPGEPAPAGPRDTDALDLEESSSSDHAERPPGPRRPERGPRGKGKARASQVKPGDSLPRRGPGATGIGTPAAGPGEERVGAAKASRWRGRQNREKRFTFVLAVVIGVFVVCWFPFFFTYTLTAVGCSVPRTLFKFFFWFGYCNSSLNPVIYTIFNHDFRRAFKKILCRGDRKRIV

[3] = biological target: T5, α2-C4 adrenergic receptor (Homo sapiens, UniProt P18825); assay: Single Receptor Format amplification assay, alpha 2 C4; conditions: for EC50: Table 3, 8-10 concentrations, 3-4 replicates, read-out: Agonist EC50 nM, α2-C4; for Max Response, α2-C4: relative to other ligands at the given receptor
T5 construct: expressed in transfected cells; host or cells: NIH 3T3
T5 sequence (P18825 1-462): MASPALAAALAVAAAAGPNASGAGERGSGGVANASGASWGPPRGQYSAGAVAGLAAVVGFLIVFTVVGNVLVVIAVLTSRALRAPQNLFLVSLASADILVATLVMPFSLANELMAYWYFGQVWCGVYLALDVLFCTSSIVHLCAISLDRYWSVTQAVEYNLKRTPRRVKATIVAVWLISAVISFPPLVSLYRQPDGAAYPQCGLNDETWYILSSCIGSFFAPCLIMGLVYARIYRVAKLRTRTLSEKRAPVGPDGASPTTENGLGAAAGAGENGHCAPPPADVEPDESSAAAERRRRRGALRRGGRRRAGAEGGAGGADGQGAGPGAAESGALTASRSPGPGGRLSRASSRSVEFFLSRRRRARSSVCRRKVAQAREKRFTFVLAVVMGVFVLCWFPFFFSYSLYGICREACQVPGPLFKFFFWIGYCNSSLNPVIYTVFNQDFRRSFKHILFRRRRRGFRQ

[4] = compounds at 300-500 nM, 50 ng/well receptor DNA, inhibition from basal, referenced to ritanserin (90-100%), mean of duplicates
[5] = relative to other ligands at the given receptor
[6] = compounds at 300-500 nM, 50 ng/well receptor DNA, […], mean of duplicates

Compound: N[C@@H](Cc1c[nH]c2ccc(O)cc12)C(=O)O [5-hydroxy-Ltryptophan]
- % INHIBITION, screen for inverse agonism at 5-HT2A receptors (5-HT2A receptor; [4]): 53%

Compound: CCNC(=O)N1CCN(CCCC(c2ccc(F)cc2)c2ccc(F)cc2)CC1 [Amperozide]
- 5-HT2C Receptor Negative Log EC50 (5-HT2C receptor): No Intrinsic

Compound: C=CCN1CCc2nc(N)sc2CC1 [BHT 920]
- Max Response, α2-C2 [1, 5]: +++
- EC50 [2]: > 10000 nM
- Max Response, α2-C10 [2]: +++
- EC50 [3]: > 10000 nM
- Max Response, α2-C4 [3]: +++

Compound: CCN1CCc2nc(N)oc2CC1 [BHT 933]
- EC50 [1]: > 10000 nM
- Max Response, α2-C2 [1, 5]: +++
- EC50 [2]: > 10000 nM
- Max Response, α2-C10 [2]: ++

Compound: O=C(CCCN1CCC(O)(c2ccc(Br)cc2)CC1)c1ccc(F)cc1 [Bromperidol]
- 5-HT2C Receptor Negative Log EC50 (5-HT2C receptor): No Intrinsic

Compound: CN(C)CCCSc1ccccc1NC(=O)/C=C/c1ccccc1 [CINANSERIN]
- % INHIBITION, screen for inverse agonism at 5-HT2A receptors (5-HT2A receptor; [4]): 75%

Compound: CCN(CC)CCCN1c2ccccc2Sc2ccc(Cl)cc21 [Chlorproethizene]
- 5-HT2A Receptor Negative Log EC50 (5-HT2A receptor): 7.70 ± 0.33
- 5-HT2C Receptor Negative Log EC50 (5-HT2C receptor): <5.0

Compound: OCCN1CCN(CC/C=C2/c3ccccc3Sc3ccc(C(F)(F)F)cc32)CC1 [Cis-Flupentixol]
- Negative Log EC50, inverse agonists at the 5-HT2A receptor (5-HT2A receptor): 8.04 ± 0.10 molar
- 5-HT2A Receptor Negative Log EC50 (5-HT2A receptor): 8.04 ± 0.10
- % INHIBITION, screen for inverse agonism at 5-HT2A receptors (5-HT2A receptor; [6]): 45%
- 5-HT2C Receptor Negative Log EC50 (5-HT2C receptor): No Intrinsic

Compound: Clc1cccc(Cl)c1N=C1NCCN1 [Clonidine]
- Max Response, α2-C4 [3]: ++

Compound: Cc1cccc([C@H](C)c2cnc[nH]2)c1C [Dexmedetomidine]
- Max Response, α2-C2 [1]: 2/+++
- Max Response, α2-C10 [2]: ±
- Max Response, α2-C4 [3]: ±

Compound: O=C1NCN(c2ccccc2)C12CCN(CCCC(c1ccc(F)cc1)c1ccc(F)cc1)CC2 [Fluspirilene]
- % INHIBITION, screen for inverse agonism at 5-HT2A receptors (5-HT2A receptor; [4]): 57%

Compound: N=C(N)NC(=O)Cc1c(Cl)cccc1Cl [Guanfacine]
- Max Response, α2-C4 [3]: ±

Compound: CC(C)NCC(O)c1ccc(O)c(O)c1 (stereo not shown) [Isoproterenol]
- Max Response, α2-C4 [3]: +

Compound: O=C(c1ccc(F)cc1)C1CCN(CCn2c(=O)[nH]c3ccccc3c2=O)CC1 [KETANSERIN]
- % INHIBITION, screen for inverse agonism at 5-HT2A receptors (5-HT2A receptor; [4]): 82%

Compound: CN1CCN(C2=Nc3ccccc3Oc3ccc(Cl)cc32)CC1 [Loxapine]
- % INHIBITION, screen for inverse agonism at 5-HT2A receptors (5-HT2A receptor; [4]): 77%

Compound: CSc1ccc2c(c1)C(N1CCN(C)CC1)Cc1ccccc1S2 (stereo not shown) [METHIOTHEPIN]
- % INHIBITION, screen for inverse agonism at 5-HT2A receptors (5-HT2A receptor): 79%

Compound: NCCC1CCCC(CCN)N1 (stereo not shown) [Mdl 26,630 3HCl]
- % INHIBITION, screen for inverse agonism at 5-HT2A receptors (5-HT2A receptor; [4]): 75%

Compound: CC1CCN(CCCC(=O)c2ccc(F)cc2)CC1 [Melperone]
- 5-HT2C Receptor Negative Log EC50 (5-HT2C receptor): No Intrinsic

Compound: CN1CCCCC1CCN1c2ccccc2Sc2ccc([S+](C)[O-])cc21 (stereo not shown) [Mesioridazine]
- 5-HT2A Receptor Negative Log EC50 (5-HT2A receptor): 7.00 ± 0.30
- 5-HT2C Receptor Negative Log EC50 (5-HT2C receptor): No Intrinsic

Compound: Cc1ccc(C2(O)CCN(CCCC(=O)c3ccc(F)cc3)CC2)cc1 [Moperone]
- 5-HT2C Receptor Negative Log EC50 (5-HT2C receptor): No Intrinsic

Compound: NC[C@H](O)c1ccc(O)c(O)c1 [Norepinephrine]
- EC50 [1]: 7200 nM
- Max Response, α2-C2 [1, 5]: ++
- EC50 [3]: 2 nM
- Max Response, α2-C4 [3]: +

Compound: CN1CCN(C2Cc3ccccc3Sc3ccc(Cl)cc32)CC1.O=C(O)/C=C\C(=O)O (stereo not shown) [Octoclothepin]
- 5-HT2A Receptor Negative Log EC50 (5-HT2A receptor): 9.74 ± 0.98
- % INHIBITION, screen for inverse agonism at 5-HT2A receptors (5-HT2A receptor; [6]): 76%

Compound: Cc1cc(C(C)(C)C)c(O)c(C)c1CC1=NCCN1 [Oxymetazoline]
- Max Response, α2-C4 [3]: +

Compound: Cc1nc2ccccn2c(=O)c1CCN1CCC(C(=O)c2ccc(F)cc2)CC1 [PIRENPIRONE]
- % INHIBITION, screen for inverse agonism at 5-HT2A receptors (5-HT2A receptor; [4]): 92%

Compound: COc1cc2nc(N3CCN(C(=O)c4ccco4)CC3)nc(N)c2cc1OC [Prazocin]
- Max Response, α2-C10 [2]: ±
- Max Response, α2-C4 [3]: ++

Compound: CN(C)CCCN1c2ccccc2Sc2ccccc21 [Promazine]
- 5-HT2C Receptor Negative Log EC50 (5-HT2C receptor): Agonist

Compound: CN(C)CCCN1c2ccccc2Sc2cccnc21 [Prothypendyl]
- 5-HT2A Receptor Negative Log EC50 (5-HT2A receptor): 6.60 ± 0.44
- 5-HT2C Receptor Negative Log EC50 (5-HT2C receptor): Agonist

Compound: C1COC(NC(C2CC2)C2CC2)=N1 [Rilmenidine]
- Max Response, α2-C2 [1, 5]: ±
- Max Response, α2-C10 [2]: ±
- EC50 [3]: 480 nM
- Max Response, α2-C4 [3]: +

Compound: O=C(CCCN1CCC2(CC1)C(=O)NCN2c1ccccc1)c1ccc(F)cc1 [Spiperone]
- % INHIBITION, screen for inverse agonism at 5-HT2A receptors (5-HT2A receptor; [4]): 82%
- 5-HT2C Receptor Negative Log EC50 (5-HT2C receptor): No Intrinsic

Compound: CCN1CCCC1CNC(=O)c1cc(S(N)(=O)=O)ccc1OC (stereo not shown) [Sulpiride]
- 5-HT2C Receptor Negative Log EC50 (5-HT2C receptor): No Intrinsic

Compound: CN1CCN(CC/C=C2/c3ccccc3Sc3ccc(S(=O)(=O)N(C)C)cc32)CC1 [Thiothixene]
- 5-HT2C Receptor Negative Log EC50 (5-HT2C receptor): No Intrinsic

Compound: OCCN1CCN(CC/C=C2\c3ccccc3Sc3ccc(C(F)(F)F)cc32)CC1 [Trans-Flupentixol]
- Negative Log EC50, inverse agonists at the 5-HT2A receptor (5-HT2A receptor): 6.77 ± 0.21 molar
- 5-HT2A Receptor Negative Log EC50 (5-HT2A receptor): 6.77 ± 0.21
- 5-HT2C Receptor Negative Log EC50 (5-HT2C receptor): 5.55 ± 0.37

Compound: O=C(CCCN1CCC(O)(c2cccc(C(F)(F)F)c2)CC1)c1ccc(F)cc1 [Triflouperidol]
- % INHIBITION, screen for inverse agonism at 5-HT2A receptors (5-HT2A receptor): 96%

Compound: Nc1cc(Cl)c(N=C2NCCN2)c(Cl)c1 [p-NH2-Clonidine]
- Max Response, α2-C10 [2]: ±
- Max Response, α2-C4 [3]: ±

Compound: Cc1nc2sccn2c(=O)c1CCN1CCC(=C(c2ccc(F)cc2)c2ccc(F)cc2)CC1 [ritanserin]
- % INHIBITION, screen for inverse agonism at 5-HT2A receptors (5-HT2A receptor; [4]): 90%
- intrinsic activity at the 5-HT2A receptor (inverse agonism) (5-HT2A receptor; receptor signaling relative to baseline (no drug)): inverse agonist

Compound: JL-18
- 5-HT2C Receptor Negative Log EC50 (5-HT2C receptor): 6.09 ± 0.45
